Here are results for 5 molecules from ChEMBL document CHEMBL5465560, “Selectivity Literature for EUbOPEN Chemogenomic Library” (2024).

For test [1], the target named is T1, Mitogen-activated protein kinase kinase kinase 19 (Homo sapiens) (UniProt Q56UN5).
T1 sequence (whole entry): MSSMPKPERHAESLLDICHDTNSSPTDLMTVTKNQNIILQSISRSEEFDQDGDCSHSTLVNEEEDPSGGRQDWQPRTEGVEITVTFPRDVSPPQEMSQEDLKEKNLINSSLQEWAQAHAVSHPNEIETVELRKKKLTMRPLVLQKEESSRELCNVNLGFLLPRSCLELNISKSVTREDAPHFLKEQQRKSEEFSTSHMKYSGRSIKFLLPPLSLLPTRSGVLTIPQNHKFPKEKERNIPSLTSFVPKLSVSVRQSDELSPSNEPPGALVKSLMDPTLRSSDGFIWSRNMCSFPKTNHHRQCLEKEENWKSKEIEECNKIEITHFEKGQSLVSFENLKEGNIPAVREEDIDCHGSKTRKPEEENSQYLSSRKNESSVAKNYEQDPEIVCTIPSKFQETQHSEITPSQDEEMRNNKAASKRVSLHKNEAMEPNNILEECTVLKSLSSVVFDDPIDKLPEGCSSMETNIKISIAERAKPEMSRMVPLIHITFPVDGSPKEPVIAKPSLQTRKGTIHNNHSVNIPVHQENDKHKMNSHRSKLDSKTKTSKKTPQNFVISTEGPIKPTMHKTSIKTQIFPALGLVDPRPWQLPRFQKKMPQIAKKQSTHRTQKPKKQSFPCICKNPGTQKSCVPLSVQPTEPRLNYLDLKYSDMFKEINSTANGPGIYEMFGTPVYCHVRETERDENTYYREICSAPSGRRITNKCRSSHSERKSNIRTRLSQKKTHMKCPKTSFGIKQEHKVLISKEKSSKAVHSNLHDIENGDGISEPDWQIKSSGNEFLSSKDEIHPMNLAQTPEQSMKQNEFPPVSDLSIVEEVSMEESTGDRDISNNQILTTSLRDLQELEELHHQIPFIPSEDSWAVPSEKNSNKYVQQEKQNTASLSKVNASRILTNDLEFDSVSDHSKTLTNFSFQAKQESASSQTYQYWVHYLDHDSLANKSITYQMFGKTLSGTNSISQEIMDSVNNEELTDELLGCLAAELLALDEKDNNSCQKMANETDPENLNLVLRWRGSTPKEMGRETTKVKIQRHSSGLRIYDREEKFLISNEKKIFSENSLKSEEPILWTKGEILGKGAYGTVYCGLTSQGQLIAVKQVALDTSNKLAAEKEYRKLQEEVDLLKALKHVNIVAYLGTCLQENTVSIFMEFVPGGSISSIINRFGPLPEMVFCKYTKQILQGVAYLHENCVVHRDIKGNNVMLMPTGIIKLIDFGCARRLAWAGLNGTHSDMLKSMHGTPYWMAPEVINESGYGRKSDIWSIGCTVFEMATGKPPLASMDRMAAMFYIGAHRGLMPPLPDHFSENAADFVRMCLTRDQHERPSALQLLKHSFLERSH
Kind of test: Selectivity interaction (Ambit KINOMEscan and KiNATiv profiling in Jurkat cells) EUB0000090b MAP3K19. It is filed as cell-based. The note with it: at 1 µM.

For test [2], the target named is T2, Dual specificity mitogen-activated protein kinase kinase 7 (Homo sapiens) (UniProt O14733).
T2 sequence (whole entry): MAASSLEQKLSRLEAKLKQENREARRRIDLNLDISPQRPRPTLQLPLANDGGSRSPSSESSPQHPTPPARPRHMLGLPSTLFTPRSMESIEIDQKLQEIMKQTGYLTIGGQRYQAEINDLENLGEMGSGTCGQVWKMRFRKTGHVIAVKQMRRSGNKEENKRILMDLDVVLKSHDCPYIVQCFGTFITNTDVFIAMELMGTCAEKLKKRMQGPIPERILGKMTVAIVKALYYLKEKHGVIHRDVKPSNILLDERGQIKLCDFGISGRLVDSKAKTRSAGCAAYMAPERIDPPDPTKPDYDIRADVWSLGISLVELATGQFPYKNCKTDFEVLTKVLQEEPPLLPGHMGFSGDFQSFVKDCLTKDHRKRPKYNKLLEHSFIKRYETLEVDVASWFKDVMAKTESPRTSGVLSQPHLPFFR
Kind of test: Selectivity interaction (KinomeScan (DiscoverX)) EUB0000607a MAP2K7. The note with it: at 10 µM.

Test [3] deals with Myosin light chain kinase 2, skeletal/cardiac muscle (Homo sapiens) (UniProt Q9H1R3). In words: Selectivity interaction (KinomeScan (DiscoverX)) EUB0000655a MYLK2. The note with it: at 10 µM.
For test [4], the target named is T3, Dual specificity mitogen-activated protein kinase kinase 4 (Homo sapiens) (UniProt P45985).
T3 sequence (whole entry): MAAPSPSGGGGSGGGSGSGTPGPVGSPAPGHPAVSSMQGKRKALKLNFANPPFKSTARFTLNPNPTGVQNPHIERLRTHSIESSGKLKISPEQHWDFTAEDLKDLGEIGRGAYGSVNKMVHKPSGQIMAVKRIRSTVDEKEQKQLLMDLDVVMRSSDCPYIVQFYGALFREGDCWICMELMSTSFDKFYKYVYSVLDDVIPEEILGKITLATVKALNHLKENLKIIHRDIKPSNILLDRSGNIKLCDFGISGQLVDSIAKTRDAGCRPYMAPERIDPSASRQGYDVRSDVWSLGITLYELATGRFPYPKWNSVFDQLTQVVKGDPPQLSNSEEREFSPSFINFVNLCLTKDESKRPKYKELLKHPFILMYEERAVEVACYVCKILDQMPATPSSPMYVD
Kind of test: Selectivity interaction (ActivX KiNativ screen (ex vivo kinase selectivity in human PBMCs)) EUB0001619a MAP2K4. The note with it: PBMC, at 1 µM. It is filed as cell-based.

The target in test [5] is Ribosomal protein S6 kinase alpha-1 (Homo sapiens, UniProt Q15418). In words: Selectivity interaction (ActivX KiNativ screen (kinase selectivity in THP-1 cell lysates)) EUB0000639a RPS6KA1. The test is classed as subcellular. Particulars: lysate, at 0.04 µM.
Chain of Ribosomal protein S6 kinase alpha-1 (Q15418 whole entry): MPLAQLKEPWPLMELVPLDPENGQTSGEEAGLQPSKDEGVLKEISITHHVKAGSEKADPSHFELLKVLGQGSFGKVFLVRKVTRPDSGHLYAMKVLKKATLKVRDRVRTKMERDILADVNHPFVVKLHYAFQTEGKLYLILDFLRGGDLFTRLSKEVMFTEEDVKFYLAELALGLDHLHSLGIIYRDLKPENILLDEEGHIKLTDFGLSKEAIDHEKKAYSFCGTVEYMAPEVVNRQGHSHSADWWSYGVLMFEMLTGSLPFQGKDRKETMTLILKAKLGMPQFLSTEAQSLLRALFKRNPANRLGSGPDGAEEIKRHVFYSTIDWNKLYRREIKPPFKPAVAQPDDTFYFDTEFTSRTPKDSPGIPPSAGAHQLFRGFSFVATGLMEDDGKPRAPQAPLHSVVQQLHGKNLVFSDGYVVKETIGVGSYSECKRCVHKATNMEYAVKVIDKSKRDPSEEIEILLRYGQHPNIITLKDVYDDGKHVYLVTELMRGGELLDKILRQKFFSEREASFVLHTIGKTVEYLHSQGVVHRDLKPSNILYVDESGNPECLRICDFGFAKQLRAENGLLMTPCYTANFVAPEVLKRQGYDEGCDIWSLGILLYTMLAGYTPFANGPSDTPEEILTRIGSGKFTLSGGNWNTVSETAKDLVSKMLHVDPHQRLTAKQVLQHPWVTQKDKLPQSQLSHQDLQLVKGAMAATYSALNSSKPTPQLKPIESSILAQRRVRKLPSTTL

Chain of Myosin light chain kinase 2, skeletal/cardiac muscle (Homo sapiens) (Q9H1R3 whole entry): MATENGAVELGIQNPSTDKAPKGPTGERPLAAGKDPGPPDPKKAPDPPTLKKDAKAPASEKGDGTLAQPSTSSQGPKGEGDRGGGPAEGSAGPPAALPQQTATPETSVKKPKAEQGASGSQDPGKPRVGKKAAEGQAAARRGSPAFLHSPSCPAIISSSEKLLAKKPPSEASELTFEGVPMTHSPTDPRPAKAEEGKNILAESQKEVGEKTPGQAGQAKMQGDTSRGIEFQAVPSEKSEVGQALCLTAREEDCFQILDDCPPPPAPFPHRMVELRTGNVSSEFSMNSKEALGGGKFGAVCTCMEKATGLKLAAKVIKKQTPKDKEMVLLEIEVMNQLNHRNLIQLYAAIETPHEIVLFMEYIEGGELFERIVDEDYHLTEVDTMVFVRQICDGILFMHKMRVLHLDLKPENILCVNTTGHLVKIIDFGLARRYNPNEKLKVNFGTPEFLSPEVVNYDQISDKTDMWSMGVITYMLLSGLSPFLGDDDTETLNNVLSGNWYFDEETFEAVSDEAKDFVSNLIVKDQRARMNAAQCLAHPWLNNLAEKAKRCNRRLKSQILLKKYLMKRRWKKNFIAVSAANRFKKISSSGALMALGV

Take `CN(C)C/C=C/C(=O)Nc1ccc(C(=O)N2CCCC(Nc3ncc(Cl)c(-c4c[nH]c5ccccc45)n3)C2)cc1` (stereo not given): in test [1], the % of control came out at 98%.

`CNC(=O)Nc1ccc(-c2nc(N3CC4CCC(C3)O4)c3cnn(C4CCC5(CC4)OCCO5)c3n2)cc1` displayed a % of control in test [2] of 100%. As for `CN(C)CCOc1ccc(-c2nc(-c3ccncc3)c(-c3ccc4c(c3)CC/C4=N\O)[nH]2)cc1`, the % of control in test [3] came to 100%. For the molecule `N#Cc1cccc(-c2c[nH]c3ncnc(N4CCOCC4)c23)c1`, the % of inhibition in test [4] amounted to 19%.

For the molecule `CC[C@@H]1[C@H](F)C(=O)N[C@@H]1COc1nccc2cc(C(N)=O)c(OC)cc12` [ZIMLOVISERTIB], the % of inhibition in test [5] is -6.2%.
